Drawing on US20220119355A1, “SATURATED-RING-FUSED DIHYDROPYRIMIDINONE OR DIHYDROTRIAZINONE COMPOUNDS AND PHARMACEUTICAL USE THEREOF” (Japan Tobacco Inc., priority 2018, published 2022), this text covers EC50 for 24 compounds.

One test has as its target T1, human RORγ (Homo sapiens, UniProt P51449).
T1 construct: from Ser253 to Lys518 for human RORγ; expressed in transfected cells; host or cells: CHO cells (transient co-transfection with pG5-Luc)
T1 sequence (P51449 253-518): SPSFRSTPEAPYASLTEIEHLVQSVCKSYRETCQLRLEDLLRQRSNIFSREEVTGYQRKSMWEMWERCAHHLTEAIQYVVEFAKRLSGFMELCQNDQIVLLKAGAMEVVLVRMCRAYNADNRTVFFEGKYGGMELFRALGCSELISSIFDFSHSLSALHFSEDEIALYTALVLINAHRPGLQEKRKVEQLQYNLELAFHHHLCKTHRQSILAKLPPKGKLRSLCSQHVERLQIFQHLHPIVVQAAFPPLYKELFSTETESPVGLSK
The experiment in a line: In-vitro reporter gene assay for inhibitory activity against RORγ transcription, Test Method A (GAL4-hRORγ LBD / pG5-Luc in CHO cells). In kind it is cell-based. Particulars: luciferase reporter, 2 days. On the procedure: (§1) In-Vitro Assay for Inhibitory Activity Against RORγ Transcription
(§2) Inhibitory activity against RORγ transcription was assessed for test compounds by either of the following Test Method A or B of reporter gene assay.
(§3) cDNAs encoding human and mouse RORγ ligand binding domains (LBD) were obtained based on the sequences of human RORγ (Genbank registered number NM_005060.3) and mouse RORγ (Genbank registered number NM_011281.2) (LBD sequences: from Ser253 to Lys518 for human RORγ; from Ile251 to Lys516 for mouse RORγ).
(§4) LBD cDNAs of human and mouse RORγ were inserted into pFA-CMV vector (Stratagene), which expresses GAL4-DNA binding domain fusion protein. The resulting plasmids are hereinafter referred to as GAL4-hRORγ plasmid and GAL4-mRORγ plasmid, respectively.
(§5) GAL4-hRORγ plasmid or GAL4-mRORγ plasmid was transiently co-transfected into Chinese hamster ovary cells (CHO cells) with pG5-Luc (Promega), reporter plasmid expressing firefly luciferase in a GAL4-dependent manner.
(§6) TransIT (Registered trademark) CHO Transfection Kit (Mirus) was used to co-transfect CHO cells with the plasmids. One day prior to the assay, CHO cells were suspended in HAM F-12 Nutrient medium containing 10% (v/v) fetal bovine serum and seeded at 6×10^6 cells per 175 cm^2 cell culture flask each. 54 μL of TransIT (Registered trademark) CHO reagent was added into a 15 mL tube containing 1.16 mL of HAM F-12 Nutrient medium without fetal bovine serum, and then mixed and incubated at room temperature for 10 minutes. 36 μL of a plasmid solution containing 400 ng of GAL4-hRORγ plasmid, 9000 ng of pG5-Luc plasmid, and 8600 ng of pcDNA3 plasmid were added into the tube and mixed gently. In the case of mouse assay, a plasmid solution containing 250 ng of GAL4-mRORγ plasmid, 9000 ng of pG5-Luc plasmid, and 8750 ng of pcDNA3 plasmid was added, instead. The mixture was incubated at room temperature for 10 minutes. 9 μL each of CHO Mojo Reagent were then added into each tube and mixed gently. The mixture was incubated at room temperature for 10 minutes. The resulting transfection reagent was applied to the cell culture. After incubation at 37° C., 5% CO2 for 4 hours, the plasmid-transfected CHO cells were harvested by trypsin treatment. The collected cells were resuspended in culture medium and plated into a 384-well-white plate at 8,000 cells/50 μL/well. The plate was let stand at room temperature for 1 hour and then further incubated at 37° C., 5% CO2 for 3 hours. A test compound was dissolved in DMSO to obtain a concentration of 10 mM. Each solution was serially diluted with DMSO and further diluted with culture medium just before use. The test compound solutions were added. to the cells in the plate at 8 different concentrations. The final concentration of DMSO was 0.2% (v/v). After the addition of test compound, the cells were incubated at […], 5% CO2 for 2 days.
(§7) RORγ transcriptional activity was detected as the intracellular luciferase activity using SteadyLite HTS Reporter Gene Assay System (Perkin Elmer). SteadyLite Reagent was diluted five-fold with Extension buffer (10 mM Tricine, 0.2% (w/v) bovine serum albumin, 0.02% (v/v) Tween-20) to obtain a luciferase substrate solution. After the measurement of the cell viability with Resazurin, the medium was removed in the plate and the luciferase substrate solution was added thereto. After the incubation at room temperature for 10 minutes, luminescence of each well was measured with a microplate reader. The luciferase activity derived from the luminescence count in a vehicle-control well treated with 0.2% DMSO alone was defined as 100%, and the luciferase activity after treatment with the test compound was calculated as a percentage, %-of-control, based on the value of the vehicle-control. An EC50 value of the test compound was calculated by curve fitting with GraphPad Prism. The luminescence counts at the concentration of test compound where cytotoxicity was observed were excluded from data analysis. […]

The next test has as its target T2, mouse RORγ (Mus musculus, UniProt P51450).
T2 construct: from Ile251 to Lys516 for mouse RORγ; expressed in transfected cells; host or cells: CHO cells (transient co-transfection with pG5-Luc)
T2 sequence (P51450 251-516): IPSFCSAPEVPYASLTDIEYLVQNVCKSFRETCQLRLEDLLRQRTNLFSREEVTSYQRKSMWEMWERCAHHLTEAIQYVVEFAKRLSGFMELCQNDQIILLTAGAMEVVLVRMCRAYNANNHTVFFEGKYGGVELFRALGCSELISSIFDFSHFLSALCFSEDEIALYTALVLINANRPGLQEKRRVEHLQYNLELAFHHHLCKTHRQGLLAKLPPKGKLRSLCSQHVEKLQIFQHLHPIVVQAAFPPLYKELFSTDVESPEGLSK
The experiment in a line: In-vitro reporter gene assay for inhibitory activity against RORγ transcription, Test Method A (GAL4-mRORγ LBD / pG5-Luc in CHO cells). Particulars: luciferase reporter, 2 days. The format is cell-based. On the procedure:
as §1, §2, §3, §4, §5, §6, §7

As for `CC(C)(C)CCc1ccc([C@]23CCCC(C)(C)C2=CN(CCC(=O)O)C(=O)N3)cc1Cl` (single isomer, unassigned) [Example 37], the EC50 at human RORγ is 3.87 µM; on mouse RORγ, 5.51 µM.

For the compound `CC(C)(C)CCc1ccc([C@@]23CCCC(C)(C)C2=CN(CCC(=O)O)C(=O)N3)cc1Cl` (single isomer, unassigned) [Example 38], the EC50 at human RORγ stood at 0.011 µM; on mouse RORγ it was 0.021 µM.

For the compound `CC(C)(C)CCc1ccc([C@]23CCCCC2=CN(CCC(=O)O)C(=O)N3)cc1Cl` (single isomer, unassigned) [Example 40], the results for the concentration for a half-maximal effect (EC50) at human RORγ and on mouse RORγ were 4.64 µM and 5.33 µM, respectively.

As for `CC(C)(C)CCc1ccc([C@@]23CCCCC2=CN(CCC(=O)O)C(=O)N3)cc1Cl` (single isomer, unassigned) [Example 41], the EC50 at human RORγ worked out at 0.017 µM; at mouse RORγ, 0.013 µM.

Take `CC1CCC2(c3ccc(CCC(C)(C)C)c(Cl)c3)NC(=O)N(CCC(=O)O)C=C2C1` (single isomer, unassigned) [Example 66]: the 50% effective concentration (EC50) on human RORγ is 0.024 µM; on mouse RORγ, 0.03 µM.

Turning to `COC1CC[C@]2(c3ccc(CCC(C)(C)C)c(Cl)c3)NC(=O)N(CCC(=O)O)C=C2C1` (single isomer, unassigned) [Example 67], the half-maximal effective concentration (EC50) was determined as 4.72 µM at human RORγ and 8.34 µM on mouse RORγ.

For `COC1CC[C@@]2(c3ccc(CCC(C)(C)C)c(Cl)c3)NC(=O)N(CCC(=O)O)C=C2C1` (single isomer, unassigned) [Example 68], the figures for the EC50 on human RORγ and on mouse RORγ were 0.015 µM and 0.016 µM, respectively.

On to `CC1CCC2(c3ccc(CCC(C)(C)C)c(Cl)c3)NC(=O)N(CCC(=O)O)C=C2C1` (single isomer, unassigned) [Example 69], for which the figures for the concentration for a half-maximal effect (EC50) on human RORγ and on mouse RORγ were 0.015 µM and 0.027 µM, respectively.

Take `C[C@H]1CC2=CN(CCC(=O)O)C(=O)NC2(c2ccc(CCC(C)(C)C)c(Cl)c2)CO1` (single isomer, unassigned) [Example 70]: the EC50 at human RORγ is 0.541 µM; at mouse RORγ, 0.516 µM.

For the compound `C[C@@H]1CC2=CN(CCC(=O)O)C(=O)NC2(c2ccc(CCC(C)(C)C)c(Cl)c2)CO1` (single isomer, unassigned) [Example 71], the concentration for a half-maximal effect (EC50) on human RORγ amounted to 0.01 µM; at mouse RORγ, 0.007 µM.

In the case of `C[C@@H]1CC2=CN(C34CC(C(=O)O)(C3)C4)C(=O)NC2(c2ccc(CCC(C)(C)C)c(Cl)c2)CO1` (single isomer, unassigned) [Example 72], the EC50 on human RORγ is 0.028 µM; at mouse RORγ, 0.015 µM.

Turning to `CC(C)(C)CCc1ccc(C23CCC(C(F)(F)F)CC2=CN(C24CC(C(=O)O)(C2)C4)C(=O)N3)cc1Cl` (single isomer, unassigned) [Example 75], the EC50 on human RORγ came out at 0.061 µM; on mouse RORγ it was 0.038 µM.

Consider `COC1CC[C@]2(c3ccc(CCC(C)(C)C)c(Cl)c3)NC(=O)N(C34CC(C(=O)O)(C3)C4)C=C2C1` (single isomer, unassigned) [Example 76], for which the EC50 at human RORγ amounted to 2.41 µM; at mouse RORγ, 3.03 µM.

As for `COC1CC[C@@]2(c3ccc(CCC(C)(C)C)c(Cl)c3)NC(=O)N(C34CC(C(=O)O)(C3)C4)C=C2C1` (single isomer, unassigned) [Example 77], the concentration for a half-maximal effect (EC50) on human RORγ worked out at 0.024 µM; at mouse RORγ it was 0.031 µM.

With `CC1CCC[C@]2(c3ccc(CCC(C)(C)C)c(Cl)c3)NC(=O)N(C34CC(C(=O)O)(C3)C4)C=C12` (single isomer, unassigned) [Example 78], the EC50 is 2.2 µM on human RORγ and more than 3.2 µM on mouse RORγ.

Take `CC1CCC[C@@]2(c3ccc(CCC(C)(C)C)c(Cl)c3)NC(=O)N(C34CC(C(=O)O)(C3)C4)C=C12` (single isomer, unassigned) [Example 79]: the EC50 on human RORγ amounted to 0.018 µM; on mouse RORγ, 0.022 µM.

Turning to `CC1CC[C@]2(c3ccc(CCC(C)(C)C)c(Cl)c3)NC(=O)N(CCC(=O)O)C=C2C1` (single isomer, unassigned) [Example 80], the 50% effective concentration (EC50) at human RORγ and at mouse RORγ was more than 10 µM each time.

With `CC1CC[C@@]2(c3ccc(CCC(C)(C)C)c(Cl)c3)NC(=O)N(CCC(=O)O)C=C2C1` (single isomer, unassigned) [Example 81], the results for the EC50 on human RORγ and on mouse RORγ were 0.013 µM and 0.019 µM, respectively.

Regarding `CC(C)(C)CCc1ccc([C@]23CCC(C)(C)CC2=CN(CCC(=O)O)C(=O)N3)cc1Cl` (single isomer, unassigned) [Example 82], the results for the EC50 on human RORγ and on mouse RORγ were 9.87 µM and 9.79 µM, respectively.

With `CC(C)(C)CCc1ccc([C@@]23CCC(C)(C)CC2=CN(CCC(=O)O)C(=O)N3)cc1Cl` (single isomer, unassigned) [Example 83], the concentration for a half-maximal effect (EC50) was determined as 0.014 µM at human RORγ and 0.018 µM at mouse RORγ.

On to `COCC1CC[C@]2(c3ccc(CCC(C)(C)C)c(Cl)c3)NC(=O)N(C34CC(C(=O)O)(C3)C4)C=C2C1` (single isomer, unassigned) [Example 84], for which the EC50 at human RORγ and at mouse RORγ was more than 10 µM in each case.

For `COCC1CC[C@@]2(c3ccc(CCC(C)(C)C)c(Cl)c3)NC(=O)N(C34CC(C(=O)O)(C3)C4)C=C2C1` (single isomer, unassigned) [Example 85], the EC50 on human RORγ stood at 0.033 µM; on mouse RORγ it was 0.073 µM.

Turning to `CC(C)(C)CCc1ccc([C@]23CCCCC2=CN(C24CC(C(=O)O)(C2)C4)C(=O)N3)cc1Cl` [Example 53], the EC50 is more than 3.2 µM on human RORγ and 2.73 µM on mouse RORγ.

`CC(C)(C)CCc1ccc([C@@]23CCCCC2=CN(C24CC(C(=O)O)(C2)C4)C(=O)N3)cc1Cl` [Example 54, 3-{(S)-8a-[3-Chloro-4-(3,3-dimethyl-butyl)phenyl]-2-oxo-1,5,6,7,8,8a-hexahydro-2H-quinazolin-3-yl}bicyclo[1.1.1]pentane-1-carboxylic acid]: the concentration giving a half-maximal response (EC50) was 0.064 µM on human RORγ and 0.035 µM at mouse RORγ.
